According to patent US20050272784A1 (priority 2004, published 2005):

System: type III protein secretion system of P. aeruginosa PA103 (ExoU secretion)
Test: Tertiary assay: Type III-dependent secretion of ExoU by P. aeruginosa PA103
Type: cell-based
Conditions: Pseudomonas aeruginosa, ExoU Conc 100 μM, read-out: ExoU % Inh
Description: Tertiary assay: inhibition of Type III protein secretion of effectors from a Pseudomonas aeruginosa system. Type III protein secretion is used by P. aeruginosa to secrete several essential virulence determinants. One effector of the type III protein secretion system of P. aeruginosa PA103 is the virulence determinants ExoU.
The amount of Type III-dependent secretion of ExoU by P. aeruginosa PA103 can be determined in a cell-based assay by quantification of the 73.9 kDa ExoU protein scereted into the extracellular medium. Such quantitation can be achieved by growing strain PA103 in a deferrated medium in the presence of nitrilotriacetic acid (an inducer of Type III protein secretion in P. aeruginosa) and either in the presence or absence of putative inhibitors. After a prolonged growth period, the cells are sedimented and the supernatants concentrated by ammonium sulfate precipitation. The proteins in the resuspended pellets are separated by electrophoresis on SDS-polyacrylamide gels. After staining gels with Colloidal Blue™, the 73.9 kDa ExoU band is quantitated by scanning through an imager. The effects of inhibitors on the intensity of the ExoU band may be measured relative to that of untreated controls.

SMILES	inhibition at 100 µM [%]
O=C(NC(Cc1ccc(Cl)cc1)C(=O)O)c1nc(-c2ccc(C(F)(F)F)cc2)oc1-c1ccc(-c2ccccc2)cc1 (centres unmarked) [Compound 59, 2-{[5-Biphenyl-4-yl-2-(4-trifluoromethylphenyl)oxazole-4-carbonyl]amino}-3-(4-chlorophenyl)propionic acid]	84.1
O=C(NC(Cc1ccc(Cl)cc1)C(=O)O)c1nc(-c2ccc(-c3ccccc3)cc2)oc1-c1cccc(C(F)(F)F)c1 (centres unmarked) [Compound 60, 2-{[2-Biphenyl-4-yl-5-(3-trifluoromethylphenyl)oxazole-4-carbonyl]amino}-3-(4-chlorophenyl)propionic acid]	90.2

Same assay, conditions: Pseudomonas aeruginosa, ExoU secreted into extracellular medium

SMILES	IC50 [µM]
O=C(N[C@@H](COCc1ccccc1)C(=O)O)c1nc(-c2ccc(-c3ccsc3)cc2)oc1-c1ccc(Cl)c(Cl)c1 [Compound 52, (S)-3-Benzyloxy-2-{[5-(3,4-dichlorophenyl)-2-(4-thien-3-yl-phenyl)oxazole-4-carbonyl]amino}propionic acid]	56.4
O=C(N[C@@H](COCc1ccccc1)C(=O)O)c1nc(-c2ccc(C(F)(F)F)cc2)oc1-c1cnc2ccccc2n1 [Compound 53, (S)-3-Benzyloxy-2-{[5-quinoxalin-2-yl-2-(4-trifluoromethylphenyl)oxazole-4-carbonyl]amino}propionic acid]	64.6
O=C(NC(Cc1ccc(Cl)cc1)C(=O)O)c1nc(-c2ccc(C(F)(F)F)cc2)oc1C1CCN(c2nccc(C(F)(F)F)n2)CC1 (centres unmarked) [Compound 55, 3-(4-Chlorophenyl)-2-({2-(4-trifluoromethylphenyl)-5-[1-(4-trifluoromethylpyrimidin-2-yl)piperidin-4-yl]oxazole-4-carbonyl}amino)propionic acid]	51.7
O=C(N[C@@H](CSCc1ccccc1)C(=O)O)c1nc(-c2ccc(C(F)(F)F)cc2)oc1C1CCN(c2nccc(C(F)(F)F)n2)CC1 [Compound 57, (R)-3-Benzylsulfanyl-2-({2-(4-trifluoromethylphenyl)-5-[1-(4-trifluoromethylpyrimidin-2-yl)piperidin-4-yl]oxazole-4-carbonyl}amino)propionic acid]	50
O=C(N[C@@H](COCc1ccccc1)C(=O)O)c1nc(-c2ccc(-c3ccccc3)cc2)oc1-c1ccc(Cl)cc1Cl [Compound 61, (S)-3-Benzyloxy-2-{[2-biphenyl-4-yl-5-(2,4-dichlorophenyl)oxazole-4-carbonyl]amino}propionic acid]	66.1
O=C(N[C@@H](COCc1ccccc1)C(=O)O)c1nc(-c2ccc(-c3ccccc3)cc2)oc1-c1cccc(C(F)(F)F)c1 [Compound 62, (S)-3-Benzyloxy-2-{[2-biphenyl-4-yl-5-(3-trifluoromethylphenyl)oxazole-4-carbonyl]amino}propionic acid]	50.5
O=C(N[C@@H](COCc1ccccc1)C(=O)O)c1nc(-c2ccc(C(F)(F)F)cc2)oc1-c1ccc(-c2ccccc2)cc1 [Compound 63, (S)-3-Benzyloxy-2-{[5-biphenyl-4-yl-2-(4-trifluoromethylphenyl)oxazole-4-carbonyl]amino}propionic acid]	37.3
O=C(N[C@H](Cc1ccc(Cl)cc1)C(=O)O)c1nc(-c2cccc3ccccc23)oc1-c1ccc(C(F)(F)F)nc1 [Compound 64, (R)-3-(4-Chlorophenyl)-2-{[2-naphthalen-1-yl-5-(6-trifluoromethylpyridin-3-yl)oxazole-4-carbonyl]amino}propionic acid]	51.4
O=C(N[C@@H](CSCc1ccccc1)C(=O)O)c1nc(-c2cccc3ccccc23)oc1-c1ccc(C(F)(F)F)nc1 [Compound 65, (R)-3-Benzylsulfanyl-2-{[2-naphthalen-1-yl-5-(6-trifluoromethylpyridin-3-yl)oxazole-4-carbonyl]amino}propionic acid]	53.1
Cc1nc(-c2ccc(-c3oc(-c4ccc(C(F)(F)F)cc4)nc3C(=O)N[C@@H](COCc3ccccc3)C(=O)O)cc2)no1 [Compound 66, (S)-3-Benzyloxy-2-{[5-[4-(5-methyl[1,2,4]oxadiazol-3-yl)phenyl]-2-(4-trifluoromethylphenyl)oxazole-4-carbonyl]amino}propionic acid]	12.5
Cc1nc(-c2ccc(-c3oc(-c4ccc(C(F)(F)F)cc4)nc3C(=O)N[C@H](Cc3ccc(Cl)cc3)C(=O)O)cc2)no1 [Compound 67, 3-(4-Chlorophenyl)-2-{[5-[4-(5-methyl[1,2,4]oxadiazol-3-yl)phenyl]-2-(4-trifluoromethylphenyl)oxazole-4-carbonyl]amino}propionic acid]	12.5
O=C(N[C@@H](COCc1ccccc1)C(=O)O)c1nc(-c2ccc(-c3ccccc3)cc2)nn1-c1ccc(Cl)c(Cl)c1 [Compound 68, (S)-3-Benzyloxy-2-{[5-biphenyl-4-yl-2-(3,4-dichlorophenyl)-2H-[1,2,4]triazole-3-carbonyl]amino}propionic acid]	39.2
O=C(NC(Cc1ccc(Cl)cc1)C(=O)O)c1nc(-c2ccc(-c3ccccc3)cc2)nn1-c1ccc(Cl)c(Cl)c1 (centres unmarked) [Compound 69, 2-{[5-Biphenyl-4-yl-2-(3,4-dichlorophenyl)-2H-[1,2,4]triazole-3-carbonyl]amino}-3-(4-chlorophenyl)propionic acid]	32.4
O=C(N[C@@H](C[S+]([O-])Cc1ccccc1)C(=O)O)c1nc(-c2ccc(-c3ccccc3)cc2)nn1-c1ccc(Cl)c(Cl)c1 (stereo partly drawn) [Compound 70, (R)-2-{[5-Biphenyl-4-yl-2-(3,4-dichlorophenyl)-2H-[1,2,4]triazole-3-carbonyl]amino}-3-phenylmethanesulfinylpropionic acid]	25.5
O=C(N[C@H](COCc1ccccc1)C(=O)O)c1nc(-c2ccc(-c3ccccc3)cc2)oc1-c1cccc(C(F)(F)F)c1 [Compound 71, (R)-3-Benzyloxy-2-{[2-biphenyl-4-yl-5-(3-trifluoromethylphenyl)oxazole-4-carbonyl]amino}propionic acid]	45.3
O=C(N[C@H](COCc1ccccc1)C(=O)O)c1nc(-c2ccc(C(F)(F)F)cc2)oc1-c1ccc(-c2ccccc2)cc1 [Compound 72, (R)-3-Benzyloxy-2-{[5-biphenyl-4-yl-2-(4-trifluoromethylphenyl)oxazole-4-carbonyl]amino}propionic acid]	54.8
O=C(N[C@@H](Cc1ccc(Cl)cc1)C(=O)O)c1nc(-c2ccc(C(F)(F)F)cc2)oc1-c1ccc(-c2ccccc2)cc1 [Compound 73, (S)-2-{[5-Biphenyl-4-yl-2-(4-trifluoromethylphenyl)oxazole-4-carbonyl]amino}-3-(4-chlorophenyl)propionic acid]	56.1

System: SPI1 type III protein secretion system (SopE'-'Bla secretion)
Test: Primary assay: Type III protein secretion of the chimeric SopE'-'Bla polypeptide by Salmonella enterica
Type: cell-based
Conditions: read-out: SopE IC50
Description: Primary assay: Type III protein secretion of the chimeric SopE′-'Bla polypeptide by Salmonella enterica. This procedure is a cell-based assay that measures the type III-dependent secretion by Salmonella enterica of a plasmid-encoded chimeric polypeptide whose synthesis can be regulated, and which is endowed with an enzymatic activity that can be monitored […] by hydrolysis of a substrate that is unable to penetrate into the bacterial cytoplasm within the time constraints of the reaction. Thus, the colorimetric reaction is not influenced by SopE′-'Bla polypeptide in the bacterial cytoplasm. Instead, it effectively measures the amount of polypeptide that has been secreted from the S. enterica cytoplasm to the extracellular medium via type III system protein secretion.
The SopE′-' Bla recombinant polypeptide consists of two functionally distinct domains spliced together. The N-terminus domain is encoded by a polynucleotide region specifying the signal for type III secretion of the SopE polypeptide of S. enterica, an effector of the SPI1 type III protein secretion system. The C-terminus domain of SopE′-'Bla consists of a 263 amino acid peptide sequence that corresponds to the TEM-1 β-lactamase expressed by plasmid pBR322 but without its N-terminal signal sequence. The TEM-1 β-lactamase part of the SopE′-'Bla chimeric polypeptide is used as a reporter enzyme. It is capable of hydrolyzing nitrocefin resulting in a product whose accumulation can be monitored by colorimetric detection. The secretion of the SopE′-'Bla chimeric polypeptide from the cytoplasm to the extracellular medium is dependent on type III protein secretion.
For this procedure, cells grown under conditions known to favor a functional SPI1 secretion system are induced for expression of the SopE′-'Bla protein and grown either in the presence or in the absence of putative inhibitors for determined time. Nitrocefin is then added to the various cultures and its hydrolysis are used for quantitation. An inhibitor of Type III protein secretion is generally a compound that reduces the signal of the enzymatic reaction by decreasing the amount of SopE′-'Bla secreted into the extracellular medium.

SMILES	IC50 [µM]
O=C(N[C@@H](CSCc1ccccc1)C(=O)O)c1nc(-c2ccc(C(F)(F)F)cc2)sc1-c1ccc(-c2ccccc2)cc1 [Compound 2, (R)-3-Benzylsulfanyl-2-{[5-biphenyl-4-yl-2-(4-trifluoromethylphenyl)thiazole-4-carbonyl]amino}propionic acid]	16.5
O=C(N[C@@H](COCc1ccccc1)C(=O)O)c1nc(-c2ccc(-c3ccccc3)cc2)oc1-c1ccc(Cl)c(Cl)c1 [Compound 6, (S)-3-Benzyloxy-2-{[2-biphenyl-4-yl-5-(3,4-dichlorophenyl)oxazole-4-carbonyl]amino}propionic acid]	25.6
O=C(N[C@@H](CSCc1ccccc1)C(=O)O)c1nc(-c2ccc(C(F)(F)F)cc2)oc1-c1cnc2ccccc2n1 [Compound 11, (R)-3-Benzylsulfanyl-2-{[5-quinoxalin-2-yl-2-(4-trifluoromethylphenyl)oxazole-4-carbonyl]amino}propionic acid]	42.2
O=C(N[C@@H](CSCc1ccccc1)C(=O)O)c1nc(-c2ccc(C(F)(F)F)cc2)oc1-c1ccc(-c2ccsc2)cc1 [Compound 20, (R)-3-Benzylsulfanyl-2-{[5-(4-thien-3-yl-phenyl)-2-(4-trifluoromethylphenyl)oxazole-4-carbonyl]amino}propionic acid]	3.3
